According to patent US20230391772A1, “METHODS AND COMPOSITIONS FOR TARGETED PROTEIN DEGRADATION” (Ranok Therapeutics (Hangzhou) Co. Ltd., priority 2020, published 2023):
pEC50, pIC50: −log10 of the molar value.

Legend:
[1] = biological target: T1, HSP90a protein (Homo sapiens, UniProt P07900); test: HSP90α-binding fluorescent polarization (FP) assay, BODIPY-labeled RNK04010 probe; details: FP competition with RNK04010 (BODIPY-labeled), 5 nM, 300 min at 25° C.
T1 construct: purchased BPS Bioscience 50298
Outline: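 Compounds (20 μM down to 5.2 nM, 2.5-fold steps) compete with a 5 nM fluorescent tracer for N-terminal HSP90a, measured by fluorescence polarization. With FITC-geldanamycin, plates sit 120 min at 25 °C. With BODIPY-RNK04010, they sit 300 min at 25 °C.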

[2] = test system: NCI-H358 human non-small cell lung cancer; test: NCI-H358 CCK-8 proliferation assay; format: cell-based; details: NCI-H358 cells, 72 hr
Outline: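 Percent inhibition derived from CCK-8 optical signal, normalised between DMSO-only cells (0%) and cell-free medium containing DMSO as background. Cells: MIA PaCa-2 carrying 2 KRAS(G12C) copies; NCI-H358, NCI-H23 carrying 1 copy apiece. Concentrations spanned 1.02 nM–20 μM in threefold increments.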

Row | SMILES | pIC50 [1] | pEC50 [2]
1 | C=CC(=O)N1CCN(c2nc(NCCC(=O)NCCOCCOCCOc3ccc(-n4c(O)nnc4-c4cc(C(C)C)c(O)cc4O)cc3)nc3c2CCN(c2cccc4cccc(Cl)c24)C3)C[C@@H]1CC#N [Compound 93, (S)-3-((4-(4-acryloyl-3-(cyanomethyl)piperazin-1-yl)-7-(8-chloronaphthalen-1-yl)-5,6,7,8-tetrahydropyrido[3,4-d]pyrimidin-2-yl)amino)-N-(2-(2-(2-(4-(3-(2,4-dihydroxy-5-isopropylphenyl)-5-hydroxy-4H-1,2,4-triazol-4-yl)phenoxy)ethoxy)ethoxy)ethyl)propanamide, trifluoroacetic acid] | 6.00 to 7.00 | < 6.00
2 | C=CC(=O)N1CCN(c2nc(NCCC(=O)N3CCN(Cc4ccc5c(c4)CN(C(=O)c4cc(CCC)c(O)cc4O)C5)CC3)nc3c2CCN(c2cc(O)cc4ccccc24)C3)CC1 [Compound 94, 1-(4-(2-((3-(4-((2-(2,4-dihydroxy-5-propylbenzoyl)isoindolin-5-yl)methyl)piperazin-1-yl)-3-oxopropyl)amino)-7-(3-hydroxynaphthalen-1-yl)-5,6,7,8-tetrahydropyrido[3,4-d]pyrimidin-4-yl)piperazin-1-yl)prop-2-en-1-one, trifluoroacetic acid] | < 6.00 | < 6.00
3 | C=CC(=O)N1CCN(c2nc(NCCC(=O)NCc3ccc(-n4c(O)nnc4-c4cc(C(C)C)c(O)cc4O)cc3F)nc3c2CCN(c2cccc4ccccc24)C3)C[C@H]1CC#N [Compound 96, (R)-3-((4-(4-acryloyl-3-(cyanomethyl)piperazin-1-yl)-7-(naphthalen-1-yl)-5,6,7,8-tetrahydropyrido[3,4-d]pyrimidin-2-yl)amino)-N-(4-(3-(2,4-dihydroxy-5-isopropylphenyl)-5-hydroxy-4H-1,2,4-triazol-4-yl)-2-fluorobenzyl)propanamide, trifluoroacetic acid] | 6.00 to 7.00 | < 6.00
4 | C=CC(=O)N1CCN(c2nc(NCCC(=O)NCc3ccc(-n4c(O)nnc4-c4cc(C(C)C)c(O)cc4O)cc3F)nc3c2CCN(c2cccc4cccc(Cl)c24)C3)C[C@H]1CC#N [Compound 97, (R)-3-((4-(4-acryloyl-3-(cyanomethyl)piperazin-1-yl)-7-(8-chloronaphthalen-1-yl)-5,6,7,8-tetrahydropyrido[3,4-d]pyrimidin-2-yl)amino)-N-(4-(3-(2,4-dihydroxy-5-isopropylphenyl)-5-hydroxy-4H-1,2,4-triazol-4-yl)-2-fluorobenzyl)propanamide, trifluoroacetic acid] | 6.00 to 7.00 | < 6.00
5 | C=CC(=O)N1CCN(c2nc(NCCC(=O)N3CCN(Cc4ccc(-n5c(O)nnc5-c5cc(C(C)C)c(O)cc5O)cc4)CC3)nc3c2CCN(c2cccc4cccc(Cl)c24)C3)C[C@H]1CC#N [Compound 100, (R)-2-(1-acryloyl-4-(7-(8-chloronaphthalen-1-yl)-2-((3-(4-(4-(3-(2,4-dihydroxy-5-isopropylphenyl)-5-hydroxy-4H-1,2,4-triazol-4-yl)benzyl)piperazin-1-yl)-3-oxopropyl)amino)-5,6,7,8-tetrahydropyrido[3,4-d]pyrimidin-4-yl)piperazin-2-yl)acetonitrile, trifluoroacetic acid] | 6.00 to 7.00 | < 6.00
6 | C=CC(=O)N1CCN(c2nc(NCCC(=O)NCC3CCN(C(=O)C4CCN(Cc5ccc(-n6c(O)nnc6-c6cc(C(C)C)c(O)cc6O)cc5)CC4)CC3)nc3c2CCN(c2cccc4ccccc24)C3)C[C@H]1CC#N [Compound 101, (R)-3-((4-(4-acryloyl-3-(cyanomethyl)piperazin-1-yl)-7-(naphthalen-1-yl)-5,6,7,8-tetrahydropyrido[3,4-d]pyrimidin-2-yl)amino)-N-((1-(1-(4-(3-(2,4-dihydroxy-5-isopropylphenyl)-5-hydroxy-4H-1,2,4-triazol-4-yl)benzyl)piperidine-4-carbonyl)piperidin-4-yl)methyl)propanamide, trifluoroacetic acid] | > 7.00 | < 6.00
7 | C=CC(=O)N1CCN(c2nc(NCCC(=O)NCC3CCN(C(=O)C4CCN(Cc5ccc(-n6c(O)nnc6-c6cc(C(C)C)c(O)cc6O)cc5)CC4)CC3)nc3c2CCN(c2cccc4cccc(Cl)c24)C3)C[C@H]1CC#N [Compound 102, (R)-3-((4-(4-acryloyl-3-(cyanomethyl)piperazin-1-yl)-7-(8-chloronaphthalen-1-yl)-5,6,7,8-tetrahydropyrido[3,4-d]pyrimidin-2-yl)amino)-N-((1-(1-(4-(3-(2,4-dihydroxy-5-isopropylphenyl)-5-hydroxy-4H-1,2,4-triazol-4-yl)benzyl)piperidine-4-carbonyl)piperidin-4-yl)methyl)propanamide, trifluoroacetic acid] | > 7.00 | < 6.00
8 | C=CC(=O)N1CCN(c2nc(NCCC(=O)NCC3CCN(C(=O)C4CCN(Cc5ccc(-n6c(O)nnc6-c6cc(CC)c(O)cc6O)cc5)CC4)CC3)nc3c2CCN(c2cccc4ccccc24)C3)C[C@H]1CC#N [Compound 103, (R)-3-((4-(4-acryloyl-3-(cyanomethyl)piperazin-1-yl)-7-(naphthalen-1-yl)-5,6,7,8-tetrahydropyrido[3,4-d]pyrimidin-2-yl)amino)-N-((1-(1-(4-(3-(5-ethyl-2,4-dihydroxyphenyl)-5-hydroxy-4H-1,2,4-triazol-4-yl)benzyl)piperidine-4-carbonyl)piperidin-4-yl)methyl)propanamide, trifluoroacetic acid] | > 7.00 | < 6.00
9 | C=CC(=O)N1CCN(c2nc(NCCC(=O)NCC3CCN(C(=O)C4CCN(Cc5ccc(-n6c(O)nnc6-c6cc(CC)c(O)cc6O)cc5)CC4)CC3)nc3c2CCN(c2cccc4cccc(Cl)c24)C3)C[C@H]1CC#N [Compound 104, (R)-3-((4-(4-acryloyl-3-(cyanomethyl)piperazin-1-yl)-7-(8-chloronaphthalen-1-yl)-5,6,7,8-tetrahydropyrido[3,4-d]pyrimidin-2-yl)amino)-N-((1-(1-(4-(3-(5-ethyl-2,4-dihydroxyphenyl)-5-hydroxy-4H-1,2,4-triazol-4-yl)benzyl)piperidine-4-carbonyl)piperidin-4-yl)methyl)propanamide, trifluoroacetic acid] | > 7.00 | < 6.00
10 | C=CC(=O)N1CCN(c2nc(NCCC(=O)N3CCN(Cc4ccc5c(c4F)CN(C(=O)c4ccc(O)cc4O)C5)CC3)nc3c2CCN(c2cc(O)cc4ccccc24)C3)CC1 [Compound 105, 1-(4-(2-((3-(4-((2-(2,4-dihydroxybenzoyl)-4-fluoroisoindolin-5-yl)methyl)piperazin-1-yl)-3-oxopropyl)amino)-7-(3-hydroxynaphthalen-1-yl)-5,6,7,8-tetrahydropyrido[3,4-d]pyrimidin-4-yl)piperazin-1-yl)prop-2-en-1-one, trifluoroacetic acid] | < 6.00 | < 6.00
11 | C=CC(=O)N1CCN(c2nc(NCCC(=O)N3CCN(Cc4ccc5c(c4F)CN(C(=O)c4cc(C)c(O)cc4O)C5)CC3)nc3c2CCN(c2cc(O)cc4ccccc24)C3)CC1 [Compound 107, 1-(4-(2-((3-(4-((2-(2,4-dihydroxy-5-methylbenzoyl)-4-fluoroisoindolin-5-yl)methyl)piperazin-1-yl)-3-oxopropyl)amino)-7-(3-hydroxynaphthalen-1-yl)-5,6,7,8-tetrahydropyrido[3,4-d]pyrimidin-4-yl)piperazin-1-yl)prop-2-en-1-one, trifluoroacetic acid] | < 6.00 | < 6.00
12 | C=CC(=O)N1CCN(c2nc(NCCC(=O)NCc3ccc(-n4c(O)nnc4-c4ccc(O)cc4O)cc3)nc3c2CCN(c2cccc4cccc(Cl)c24)C3)C[C@@H]1CC#N [Compound 111, (S)-3-((4-(4-acryloyl-3-(cyanomethyl)piperazin-1-yl)-7-(8-chloronaphthalen-1-yl)-5,6,7,8-tetrahydropyrido[3,4-d]pyrimidin-2-yl)amino)-N-(4-(3-(2,4-dihydroxyphenyl)-5-hydroxy-4H-1,2,4-triazol-4-yl)benzyl)propanamide, trifluoroacetic acid] | < 6.00 | < 6.00
13 | CCc1cc(-c2nnc(C(=O)NCC(F)(F)F)n2-c2ccc(CN(C)Cc3ccc(CC4CCN(C(=O)CCNc5nc6c(c(N7CCN(C(C)=O)CC7)n5)CCN(c5cc(O)cc7ccccc57)C6)CC4)cc3)cc2)c(O)cc1O [Compound 113, 4-(4-(((4-((1-(3-((4-(4-acetylpiperazin-1-yl)-7-(3-hydroxynaphthalen-1-yl)-5,6,7,8-tetrahydropyrido[3,4-d]pyrimidin-2-yl)amino)propanoyl)piperidin-4-yl)methyl)benzyl)(methyl)amino)methyl)phenyl)-5-(5-ethyl-2,4-dihydroxyphenyl)-N-(2,2,2-trifluoroethyl)-4H-1,2,4-triazole-3-carboxamide, trifluoroacetic acid] | 6.00 to 7.00 | 6.00 to 7.00
14 | CC(=O)N1CCN(c2nc(NCCC(=O)N3CCC(Cc4ccc(CN(C)Cc5ccc(-n6c(C(=O)NCC(F)(F)F)nnc6-c6cc(C)c(O)cc6O)cc5)cc4)CC3)nc3c2CCN(c2cc(O)cc4ccccc24)C3)CC1 [Compound 114, 4-(4-(((4-((1-(3-((4-(4-acetylpiperazin-1-yl)-7-(3-hydroxynaphthalen-1-yl)-5,6,7,8-tetrahydropyrido[3,4-d]pyrimidin-2-yl)amino)propanoyl)piperidin-4-yl)methyl)benzyl)(methyl)amino)methyl)phenyl)-5-(2,4-dihydroxy-5-methylphenyl)-N-(2,2,2-trifluoroethyl)-4H-1,2,4-triazole-3-carboxamide, trifluoroacetic acid] | < 6.00 | < 6.00
